For orientation: IC50 means the concentration that inhibits the measured activity by half.

T2 sequence (P35968 20-1356, species assumed): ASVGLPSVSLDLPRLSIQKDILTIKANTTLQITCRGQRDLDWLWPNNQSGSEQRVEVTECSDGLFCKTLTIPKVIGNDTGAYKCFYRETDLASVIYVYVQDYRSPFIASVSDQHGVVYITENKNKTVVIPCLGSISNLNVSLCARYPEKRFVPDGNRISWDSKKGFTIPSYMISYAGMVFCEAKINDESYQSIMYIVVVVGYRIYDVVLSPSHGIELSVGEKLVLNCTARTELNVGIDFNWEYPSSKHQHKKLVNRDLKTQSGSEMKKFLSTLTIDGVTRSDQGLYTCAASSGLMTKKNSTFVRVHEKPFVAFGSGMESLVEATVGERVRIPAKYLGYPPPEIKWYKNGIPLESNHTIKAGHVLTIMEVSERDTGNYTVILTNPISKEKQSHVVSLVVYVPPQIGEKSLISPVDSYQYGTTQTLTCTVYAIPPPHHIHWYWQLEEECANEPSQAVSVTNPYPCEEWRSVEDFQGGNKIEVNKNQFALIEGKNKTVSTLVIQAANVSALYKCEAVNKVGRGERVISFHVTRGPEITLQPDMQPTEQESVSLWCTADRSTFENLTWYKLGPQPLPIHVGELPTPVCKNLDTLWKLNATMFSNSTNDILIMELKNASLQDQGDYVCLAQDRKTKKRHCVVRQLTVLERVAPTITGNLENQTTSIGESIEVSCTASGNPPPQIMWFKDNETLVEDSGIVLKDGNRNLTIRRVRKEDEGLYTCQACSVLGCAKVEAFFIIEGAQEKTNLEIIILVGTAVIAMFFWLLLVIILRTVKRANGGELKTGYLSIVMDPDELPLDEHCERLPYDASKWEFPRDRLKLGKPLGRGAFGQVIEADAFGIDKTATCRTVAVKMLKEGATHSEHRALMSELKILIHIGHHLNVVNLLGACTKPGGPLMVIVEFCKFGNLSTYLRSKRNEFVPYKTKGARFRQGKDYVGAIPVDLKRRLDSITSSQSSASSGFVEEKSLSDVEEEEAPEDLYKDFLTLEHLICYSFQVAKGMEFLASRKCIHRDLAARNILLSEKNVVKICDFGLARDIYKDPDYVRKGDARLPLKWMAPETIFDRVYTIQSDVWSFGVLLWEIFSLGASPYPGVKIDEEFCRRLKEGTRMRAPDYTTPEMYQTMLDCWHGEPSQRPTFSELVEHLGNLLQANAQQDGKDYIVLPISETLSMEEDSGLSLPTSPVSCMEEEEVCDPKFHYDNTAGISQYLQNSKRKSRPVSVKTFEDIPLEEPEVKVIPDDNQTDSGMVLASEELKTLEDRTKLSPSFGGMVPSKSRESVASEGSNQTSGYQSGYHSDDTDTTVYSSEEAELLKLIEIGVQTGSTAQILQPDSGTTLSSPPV

The target of the first experiment is T1, Chk1 (Homo sapiens, UniProt O14757).
T1 construct: His6 (C); made in house; host or cells: Sf-9 insect cells (baculovirus)
T1 sequence (O14757 1-476): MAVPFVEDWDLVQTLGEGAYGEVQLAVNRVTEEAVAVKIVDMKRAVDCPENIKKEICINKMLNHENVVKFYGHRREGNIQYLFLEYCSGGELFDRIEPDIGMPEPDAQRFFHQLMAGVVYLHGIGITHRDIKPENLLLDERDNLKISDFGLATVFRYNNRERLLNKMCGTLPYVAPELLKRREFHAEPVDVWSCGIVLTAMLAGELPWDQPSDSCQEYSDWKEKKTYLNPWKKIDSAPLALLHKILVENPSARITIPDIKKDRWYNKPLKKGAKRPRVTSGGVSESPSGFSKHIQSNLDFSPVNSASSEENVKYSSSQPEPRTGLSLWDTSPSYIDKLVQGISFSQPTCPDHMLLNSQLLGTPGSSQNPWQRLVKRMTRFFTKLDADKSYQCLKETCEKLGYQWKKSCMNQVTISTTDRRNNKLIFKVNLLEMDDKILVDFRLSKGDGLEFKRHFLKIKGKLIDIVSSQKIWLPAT
The experiment can be described thus: Chk1 kinase assay (SPA). In kind it is biochemical. To be noted: read-out: Chk-1 IC50. An excerpt: Recombinant Chk1-His6-fusion protein, expressed in insect cells (Sf-9) and purified by Ni-NTA affinity chromatography was used as kinase. Alternatively, commercially available GST-Chk1-fusion protein (Upstate Biotechnology, Dundee, Scotland) can be used. As substrate for the kinase reaction the biotinylated peptide biotin-Arg-Ser-Gly-Leu-Tyr-Arg-Ser-Pro-Ser-Met-Pro-Glu-Asn-Leu-Asn-Arg-Pro-Arg-OH was used which can be purchased e.g. from the company Biosyntan GmbH (Berlin-Buch, Germany).
Chk1 (200 ng/measurement point) was incubated for 60 min at 22 °C in the presence of different concentrations of test compounds (0 μM and concentrations in the range 0.001-30 μM) in 30 μl assay buffer [50 mM Hepes/NaOH pH7.5, 10 mM MgCl2, 1 mM MnCl2, 0.1 mM sodium ortho-vanadate, 1.0 mM dithiothreitol, 0.5 μM adenosine-tri-phosphate (ATP), 1.9 μM substrate peptide (Biotin-Arg-Ser-Gly-Leu-Tyr-Arg-Ser-ProSer-Met-Pro-Glu-Asn-Leu-Asn-Arg-Pro-Arg-OH), 6 nCi/measurement point ^33P-gamma ATP, 0.008% NP40, 1.5% (v/v) dimethylsulfoxide]. The reaction was stopped by the addition of 20 μl of a suspension of streptavidine coated PVT-SPA-beads (0.15 mg/measurement point, from Amersham Biotech) in an aqueous EDTA/ATP-solution (20 mM EDTA, 50 μM ATP, 1% (v/v) Triton X-100 in PBS).
The resulting mixture was incubated further 16 h at 22° C. to allow the binding of the biotinylated peptide to the streptavidine coated PVT-SPA-beads and to allow the sedimentation of the beads. Subsequently the amount of 33P incorporated into the substrate peptide was evaluated by scintillation measurement in a Topcount NXT (Perkin-Elmer).
Regarding `C#CCOc1nc(Nc2cc(CO)cc(NC(=O)[C@H](N)Cc3ccccc3)c2)ncc1Br` [Example A17, (αR)-α-Amino-N-[3-[[5-bromo-4-(prop-2-ynyloxy)pyrimidin-2-yl]amino]-5-(hydroxymethyl)phenyl]benzenepropanamide], the half-inhibitory concentration (IC50) amounted to 200 nM.

`Brc1cnc(Nc2cccc(CN3CC=CC3)c2)nc1NCCc1c[nH]cn1` [Example 65]: the IC50 was 440 nM.

`C#CCOc1nc(Nc2cc(CO)cc(NCCO)c2)ncc1Br` [Example A18, 3-[[5-Bromo-4-(prop-2-ynyloxy)pyrimidin-2-yl]amino]-5-[(2-hydroxyethyl)amino]benzenemethanol]: the IC50 amounted to 80 nM.

In the case of `O=C(Cc1ccc(Cl)cc1Cl)NCCCNc1nc(Nc2cccc(NC(=O)N3CCCC3)c2)ncc1Br` [Example 699], the IC50 was 20 nM.

Regarding `C#CCOc1nc(Nc2cc(NC(=O)[C@H](N)Cc3ccccc3)cc(NC(=O)N3CCCC3)c2)ncc1Br` [Example A16], the IC50 worked out at 300 nM.

A further experiment has as its target T2, VEGFR II (KDR) (Homo sapiens, UniProt P35968).
T2 construct: GST; made in house; host or cells: Sf-9 insect cells
The experiment can be described thus: KDR kinase assay (HTRF).
Settings: not given
Format: biochemical. An excerpt:
Recombinant KDR-GST-fusion protein, expressed in insect cells (Sf-9) and purified by Glutathion affinity chrormatography was used as kinase. Alternatively, commercially available GST-KDR-fusion protein (Proqinase, Freiburg i.Brsg., Germany) can be used. As substrate for the kinase reaction the biotinylated copolymer poly-(Glu, Tyr-4:1) which can be purchased e.g. from the company Cisbiointernational (Marcoule, France).
In a black low volume 384 well microtiterplate (Greiner, Frickenhausen, Germany) KDR (enzyme amount depending on lot, adjusted to give an dF of about 300-400) was incubated for 20 min at 22° C. in the presence of different concentrations of test compounds (0 μM and concentrations in the range 0.001-30 μM) in 15 μl assay buffer [50 mM Hepes/NaOH pH7.0, 25 mM MgCl2, 5 mM MnCl2, 0.5 mM sodium ortho-vanadate, 1.0 mM dithiothreitol, 1 μM adenosine-tri-phosphate (ATP), 23.5 μg/ml substrate [biotinylated poly-(Glu, Tyr; 4:1)], 1.5% (v/v) dimethylsulfoxide]. The reaction was stopped by the addition of 5 μl of a solution of the detection reagents [0.3 μg/ml Eu-W1024-labeled antiphosphotyrosine antibody (PT66) (Perkin-Elmer) and 4.125 μg/ml […] (Cisbiointernational, Marcoule, France)] in an aqueous EDTA-solution (250 mM EDTA, 0.1% (w/v) bovine serum albumine in 100 mM HEPES/NaOH pH 7.0).
The resulting mixture was incubated further 2 h at 22° C. to allow the binding of the biotinylated substrate and product to the SA-XL-665 and the EU labeled anti-phosphotyrosine antibody. Subsequently the amount of phosphate incorporated into the substrate was evaluated by resonance energy transfer measurement in a HTRF reader (Discovery, Perkin-Elmer).
The IC50 values are determined from the inhibitor concentration that is necessary to inhibit the phosphate incorporation to 50% of the uninhibited incorporation after removal of the blank reading (EDTA-stopped reaction).
On the technique in general: In TR-FRET formats the signal depends on donor and acceptor labels being close together.
For `CCOC(=O)NCCCNc1nc(Nc2cccc(NC(=O)N3CCCC3)c2)ncc1Br` [Example 477], the IC50 was found to be 740 nM.

`C[C@@H](N)C(=O)NCCCNc1nc(Nc2cccc(NC(=O)N3CCCC3)c2)ncc1Br` [Example 512] yielded a 50% inhibitory concentration (IC50) of 1400 nM.

As for `O=C1N[C@H](C(=O)NCCCNc2nc(Nc3cccc(NC(=O)N4CCCC4)c3)ncc2Br)CS1` [Example 452], the midpoint of inhibition, the IC50, lay at 9.7 nM.

`O=C1CC[C@@H](C(=O)NCCCNc2nc(Nc3cccc(N4C(=O)CNC4=O)c3)ncc2Br)N1` [Example 539] had an IC50 of 10.6 nM.

`CN1CC(=O)N(c2cccc(Nc3ncc(Br)c(NCCc4c[nH]cn4)n3)c2)C1=O` [Example 395] had a 50% inhibitory concentration (IC50) of 32 nM.

In the case of `CN1CC(=O)N(c2cccc(Nc3ncc(Br)c(NCCCNC(=O)[C@@H]4CSC(=O)N4)n3)c2)C1=O` [Example 546], it took 4 nM to reach half-maximal inhibition (IC50).

The compound `CCN(CCN1CCCCC1)C(=O)Nc1cccc(Nc2ncc(Br)c(NCCc3c[nH]cn3)n2)c1` [Example 389] came in with an IC50 of 330 nM.

For the compound `O=C1N[C@H](C(=O)NCCCNc2nc(Nc3cccc(N4C(=O)CNC4=O)c3)ncc2Br)CS1` [Example 535], the IC50 stood at 2.6 nM.

In turn, `CC(C)CC(=O)NCCCNc1nc(Nc2cccc(NC(=O)N3CCCC3)c2)ncc1Br` [Example 473] yielded an IC50 of 400 nM.

Biological target in a further experiment: not listed separately
The experiment can be described thus: PDK-1-dependent activation and subsequent enzymatic activity of AKT2 (SPA). To be noted: AKT2 activated by PDK-1 in the assay; read-out: Akt-2 inhibition IC50. Format: biochemical, human. Here is the method:
PDK-1-dependent activation and subsequent enzymatic activity of AKT2: Purified human AKT2 activity was routinely measured in an assay in which the enzyme was first activated by PDK-1 in the presence of phosphatidylinositol-4,5-bisphosphate (PIP2). Once activated, AKT2-dependent phosphorylation of a peptide substrate was measured by scintillation proximity assay (SPA).
Phospholipid vesicles were prepared as follows: 2.2 mg each of phosphatidylcholine (Sigma Cat # P-1287) and phosphatidylserine (Sigma Cat #P-6641) were transferred to a borosilicate glass test tube and dried down under nitrogen. 1 mg of PIP2 (Biomol Cat #PH-106) was suspended in 9.5 ml of 10 mM HEPES, pH 7.5 and transferred to the dried lipids. The tube was vortexed until a milky suspension was produced. Then the tube was placed in a ice water-jacketed cup horn sonicator (Branson Instruments) and subjected to sonication for 20 min at medium power until a translucent phospholipid vesicle preparation was obtained. Aliquots of the vesicle suspension were frozen at −80 °C until needed.
Assays were performed in 96-well polypropylene V-bottom plates. Incubations were carried out for 2 hr at room temperature. The assay mixture contained in a volume of 60 μL: 15 mM MOPS, pH 7.2, 1 mg/ml bovine serum albumin, 18 mM betaglycerolphosphate, 0.7 mM dithiothreitol, 3 mM EGTA, 10 mM MgOAc, 7.5 (M ATP, 0.2 μCi of [γ-^33P]ATP, 7.5 μM biotinylated peptide substrate (biotin-ARRRDGGGAQPFRPRAATF), 0.5 μL of PIP2-containing phospholipid vesicles, 60 pg of purified recombinant human PDK-1, and 172 ng of purified recombinant human AKT2. Test compounds were added from stock solutions in DMSO. The final concentration of DMSO was 2.5%. Following incubation, 10 μL of the assay mixture was transferred to a 96-well clear-bottom polystyrene plate (Wallac Isoplate) containing 0.33 mg of streptavidin-coated SPA beads (Amersham Cat. # RPNQ0007) suspended in 200 μL of phosphate-buffered saline, pH 7.4, containing 50 mM EDTA and 0.1% Triton X-100. After brief shaking, the SPA beads were allowed to settle to the bottom of the plate overnight at room temperature. […] PDK-1 was added at sub-optimal levels so that the assay could sensitively detect inhibitors of AKT2 activation as well as direct AKT2 kinase inhibitors. The z′-factor for the assay was greater than 0.7.
Phosphorylation was readily observed, however, upon addition of purified activated human AKT1 (purchased from Upstate Biotechnology), independent of the presence or absence of added PDK-1 or PIP2-containing vesicles.
`O=C(Nc1cccc(Nc2ncc(Br)c(NCCc3c[nH]cn3)n2)c1)N1CCCC1` [Example 220]: the IC50 worked out at 6 nM.

Consider `CN1CC(=O)N(c2cccc(Nc3ncc(Br)c(NCCCNC(=O)[C@@H]4CSC(=O)N4)n3)c2)C1=O` [Example 546], for which the IC50 was 4 nM.

As for `CC(C)(C(N)=O)C(=O)NCCCNc1nc(Nc2cccc(N3C(=O)CNC3=O)c2)ncc1Br` [Example 540], the IC50 was 19 nM.

On to `CC(C)(C(N)=O)C(=O)NCCCNc1nc(Nc2cccc(NC(=O)[C@H](N)Cc3ccccc3)c2)ncc1Br` [Example 504], for which the 50% inhibitory concentration (IC50) was 24 nM.

Consider `CC(C)(C(N)=O)C(=O)NCCCNc1nc(Nc2cccc(NC(=O)[C@@H](N)c3ccccc3)c2)ncc1Br` [Example 521], for which the IC50 is 44 nM.

Consider `NC(=O)C1(C(=O)NCCCNc2nc(Nc3cccc(NC(=O)[C@@H]4CCCN4)c3)ncc2Br)CC1` [Example 492], for which the IC50 came to 23 nM.

The values above are taken from patent US7504410B2, “Chk-, Pdk- and Akt-inhibitory pyrimidines, their production and use as pharmaceutical agents” (Schering Aktiengesellschaft, priority 2002, dated 2009).
